Consider 7 compounds from ChEMBL document CHEMBL4400572, “Small structural alterations greatly influence the membrane affinity of lipophilic ligands: Membrane interactions of bafilomycin A1 and its desmethyl derivative bearing 19F-labeling” (Bioorg Med Chem, 2019).

Data set [1] can be described thus: n-Octanol/water partition coefficient, log P of the compound by RP-HPLC analysis. Type of data set: physicochemical.
Data set [2] in a line: Permeability of the compound assessed as molar fraction in donor well at 0.5 mM measured after 16 hrs by PAMPA. Type of data set: ADME. The conditions noted are these: 500 µM. For orientation: The PAMPA barrier holds no transporters, so it reflects passive diffusion.
Data set [3] in a line: Permeability of the compound assessed as molar fraction in donor well at 0.5 mM measured after 2 hrs by PAMPA. The data set is classed as ADME. The conditions noted are these: 500 µM.
Data set [4] in a line: Permeability of the compound assessed as molar fraction in acceptor well at 0.5 mM measured after 16 hrs by PAMPA. Type of data set: ADME. The conditions noted are these: 500 µM.
The nature of data set [5]: Permeability of the compound assessed as molar fraction in acceptor well at 0.5 mM measured after 2 hrs by PAMPA. The data set is classed as ADME. The settings on record: 500 µM.
Data set [6] is described as follows: n-Octanol/water partition coefficient, log P of the compound by UV-RP-HPLC analysis. The data set is classed as physicochemical.
A short description of data set [7]: Permeability of the compound assessed as molar fraction in membrane at 0.5 mM measured after 2 hrs by PAMPA. Type of data set: ADME. The conditions noted are these: 500 µM.
The nature of data set [8]: Permeability of the compound assessed as molar fraction in membrane at 0.5 mM measured after 16 hrs by PAMPA. The data set is classed as ADME. The settings on record: 500 µM.
The nature of data set [9]: Permeability of the compound assessed as molar fraction in donor well at 0.5 mM measured immediately by PAMPA. The data set is classed as ADME. The settings on record: 500 µM.
Data set [10] can be described thus: Permeability of the compound assessed as rate constant for partitioning to the membrane by PAMPA. Type of data set: ADME.
Data set [11] in a line: Permeability of the compound assessed as rate constant for coming off the membrane by PAMPA. Type of data set: ADME.
The nature of data set [12]: Permeability of the compound assessed as ratio of Kin to Kout by PAMPA. Type of data set: ADME.
The test system of data set [13] is Lipid bilayer. Kind of data set: Binding affinity to POPC liposome membrane assessed as intrinsic dipolar splitting (D) at <1 mg by solid-state 19F NMR spectra analysis.
Data set [14] can be described thus: Permeability of the compound by PAMPA.

One may read the logP as the decadic logarithm of the partition coefficient of the neutral form, usually between octanol and water. Low values mean lower lipophilicity, high ones higher lipophilicity. What is called Papp is the rate of passage across a membrane or cell layer, normalised by area and donor concentration.

As to `OC/C=C/c1ccccc1` [CINNAMIC ALCOHOL], the logP in data set [1] came to 1.9.

As to `CO/C1=C\C(C)=C\[C@@H](C)[C@@H](O)[C@@H](C)C/C(C)=C/C=C/[C@H](OC)[C@@H]([C@@H](C)[C@@H](O)[C@H](C)[C@@]2(O)C[C@@H](O)[C@H](C)[C@@H](C(C)C)O2)OC1=O` [BAFILOMYCIN A1], the permeability was 11% in data set [2]; 27.4% in data set [3]; -1.5% in [4]; 4.8% in data set [5]; 67.9% in data set [7]; 90.5% in data set [8]. Also, the permeability in data set [9] stood at 100%. This compound returned a logP in data set [6] of 4.74. In addition, the figures for the K in [10] and in data set [11] were 20.7 ×10⁻⁵ /s and 3.25 ×10⁻⁷ /s, respectively. The Ratio in data set [12] was determined as 1170.

Take `CO/C1=C\C(C)=C\C[C@@H](O)CC/C(C)=C/C=C/[C@H](OC)[C@@H]([C@@H](C)[C@@H](O)[C@H](C)[C@@]2(O)C[C@@H](O)[C@H](C)[C@@H](C(F)(F)F)O2)OC1=O`: the permeability was 30.2% in data set [2]; 63.4% in data set [3]; 6.7% in data set [4]; 2.8% in [5]; 33.7% in [7]; 63.1% in data set [8]. Also, the permeability in data set [9] was 100%. The compound further yielded a logP in [6] of 2.81. In addition, the K in data set [10] came to 7.08 ×10⁻⁵ /s; in data set [11], 5.91 ×10⁻⁷ /s. In addition, the Ratio in [12] came out at 143. Further, the D in data set [13] was 2.4 kHz.

Turning to `Cc1c(Cl)cccc1Cl`, the log partition coefficient (logP) in data set [1] came to 4.29.

With `CO/C1=C\C(C)=C\[C@@H](C)[C@@H](O)[C@@H](C)C/C(C)=C/C=C/[C@H](OC)[C@@H]([C@@H](C)[C@@H](O)[C@H](C)[C@@]2(O)C[C@@H](O)[C@H](C)[C@@H](C(F)(F)F)O2)OC1=O`, the permeability was 16.6% in data set [2]; 52.2% in data set [3]; -0.2% in data set [4]; -0.5% in data set [5]; 48.3% in [7]; 83.7% in [8]. Also, the permeability in data set [9] is 100%. Moreover, the logP in data set [6] was 4.54. For the same compound, the K is given as 9.55 ×10⁻⁵ /s in [10] and 2.47 ×10⁻⁷ /s in data set [11]. In addition, the Ratio in data set [12] came out at 393. Further, the D in data set [13] stood at 2.9 kHz.

Turning to `Cn1c(=O)c2[nH]cnc2n(C)c1=O.O` [THEOPHYLLINE], in [14], the Papp is 0.0848 ×10⁻⁶ cm/s.

Compound `Cc1ccc(C(=O)c2ccc(C)cc2)cc1` yielded a logP in data set [6] of 3.84.
